These results are taken from patent US10357036B2, “Compounds for controlling arthropods” (priority 2015, dated 2019).

One experiment has as its system Phaedon cochleariae. The experiment in a line: Phaedon cochleariae spray test. As to conditions: 100 g/ha; after 7 days.
In the next experiment the test system is Tetranychus urticae. The experiment is described as follows: Tetranychus urticae spray test, OP-resistant (bean leaf discs). As to conditions: 100 g/ha; after 6 days. The experiment is classed as in vivo. The method, then: After 6 days, the efficacy in % is determined.
Experiment [1] concerns Ctenocephalides felis. The experiment is described as follows: Ctenocephalides felis oral test. The class given is in vivo. As to conditions: 100 ppm in citrated cattle blood; after 2 days. The method, then: • Solvent: Dimethyl Sulfoxide
To produce a suitable active ingredient formulation, 10 mg of active ingredient are mixed with 0.5 ml of dimethyl sulfoxide. Dilution with citrated cattle blood gives the desired concentration.
About 20 unfed adult cat fleas (Ctenocephalides fells) are placed into a chamber which is closed at the top and bottom with gauze. A metal cylinder whose bottom end is closed with parafilm is placed onto the chamber. The cylinder contains the blood/active ingredient formulation, which can be imbibed by the fleas through the parafilm membrane.

Experiment [2] concerns Ctenocephalides felis. The experiment in a line: Ctenocephalides felis in vitro contact test with adult cat fleas. The experiment is classed as in vivo. As to conditions: application rate 5 μg/cm^2 (=500 g/ha); after 48 h; dead or moribund fleas. The method, then: (§1) For the coating of the test tubes, 9 mg of active ingredient are first dissolved in 1 ml of acetone p.a. and then diluted to the desired concentration with acetone p.a. 250 μl of the solution are distributed homogeneously on the inner walls and the base of a 25 ml glass tube by turning and rocking on an orbital shaker (rocking rotation at 30 rpm for 2 h). With 900 ppm of active ingredient solution and internal surface area 44.7 cm^2, given homogeneous distribution, an area-based dose of 5 μg/cm^2 is achieved.
After the solvent has evaporated off, the tubes are populated with 5-10 adult cat fleas (Ctenocephalides felis), sealed with a perforated plastic lid and incubated in a horizontal position at room temperature and ambient humidity. After 48 h, efficacy is determined. To this end, the tubes are stood upright and the fleas are knocked to the base of the tube. Fleas which remain motionless at the base or move in an uncoordinated manner are considered to be dead or moribund.
100% efficacy means that all the fleas were dead or moribund. 0% efficacy means that no fleas were harmed.

Another experiment has as its system Spodoptera frugiperda. The experiment in a line: Spodoptera frugiperda spray test. The class given is in vivo. As to conditions: 100 g/ha; after 7 days.
Another experiment has as its system Rhipicephalus sanguineus. The experiment in a line: Rhipicephalus sanguineus in vitro contact test with adult brown dog ticks. The experiment is classed as in vivo. As to conditions: after 48 h. The protocol: as §1
After the solvent has evaporated off, the tubes are populated with 5-10 adult dog ticks (Rhipicephalus sanguineus), sealed with a perforated plastic lid and incubated in a horizontal position in the dark at room temperature and ambient humidity. After 48 h, efficacy is determined. To this end, the ticks are knocked to the base of the tube and incubated on a hotplate at 45-50° C. for not more than 5 min. Ticks which remain motionless on the base or move in such an uncoordinated manner that they are unable to deliberately avoid the heat by climbing upwards are considered to be dead or moribund.
An efficacy of 100% means that all the ticks were dead or moribund. 0% efficacy means that none of the ticks were harmed.

The next experiment relates to Boophilus microplus. The experiment is described as follows: Boophilus microplus injection test. The experiment is classed as in vivo. As to conditions: 20 μg/animal; assessed after 7 days. The method, then: (§2) • Solvent: dimethyl sulfoxide
1 μl of the active ingredient solution is injected into the abdomen of 5 engorged adult female cattle ticks (Boophilus microplus). The animals are transferred into dishes and kept in a climate-controlled room.

The next experiment concerns Musca domestica. The experiment is described as follows: Musca domestica test. The class given is in vivo. As to conditions: 100 ppm; adult houseflies; after 2 days. The protocol: as §2
To produce a suitable active ingredient formulation, 10 mg of active ingredient are mixed with 0.5 ml of dimethyl sulfoxide, and the concentrate is diluted with water to the desired concentration.
Vessels containing a sponge treated with sugar solution and the active ingredient formulation of the desired concentration are populated with 10 adult houseflies (Musca domestica).

[3] abbreviates: application rate 5 μg/cm^2 (=500 g/ha), dead or moribund ticks.

As to `CC(=O)NCc1cc(-c2cnn(-c3c(Cl)cc(C(F)(C(F)(F)F)C(F)(F)F)cc3C#N)c2)ccc1Cl` [Ia-104], the efficacy in the experiment on Phaedon cochleariae, in the experiment on Tetranychus urticae, in the experiment on Ctenocephalides felis [2], with Spodoptera frugiperda and with Rhipicephalus sanguineus (setting [3]) was 100% each time. Besides, the “efficacy (rate of extermination)” value in the experiment on Ctenocephalides felis [1] and with Musca domestica was 100% in each case. Further, the “efficacy (laying of fertile eggs)” value in the experiment on Boophilus microplus came to 100%.
For `CCC(=O)NCc1cc(-c2cnn(-c3c(Cl)cc(C(F)(C(F)(F)F)C(F)(F)F)cc3Cl)c2)ccc1Cl` [Ia-16], the efficacy in the experiment on Phaedon cochleariae, in the experiment with Ctenocephalides felis [2], in the experiment with Spodoptera frugiperda and in the experiment with Rhipicephalus sanguineus (setting [3]) was 100% each time. For the same compound, the “efficacy (rate of extermination)” value with Ctenocephalides felis [1] and in the experiment on Musca domestica was 100% each time. Also, in the experiment with Boophilus microplus, the “efficacy (laying of fertile eggs)” value worked out at 100%.
Take `CC(=O)NCc1cc(-c2cnn(-c3c(Cl)cc(C(F)(C(F)(F)F)C(F)(F)F)cc3C(F)(F)F)c2)cnc1Cl` [Ia-139]: the efficacy in the experiment with Phaedon cochleariae amounted to 100%; in the experiment with Tetranychus urticae it was 90%; in the experiment on Ctenocephalides felis [2] it was 100%; in the experiment on Spodoptera frugiperda, 100%; in the experiment on Rhipicephalus sanguineus (setting [3]), 100%. Besides, the “efficacy (rate of extermination)” value in the experiment with Ctenocephalides felis [1] and in the experiment on Musca domestica was 100% each time. The “efficacy (laying of fertile eggs)” value in the experiment on Boophilus microplus was 100%.
Consider `CC(=O)NCc1cc(-c2cnn(-c3c(Cl)cc(C(F)(C(F)(F)F)C(F)(F)F)cc3C(F)(F)F)c2)ccc1F` [Ia-82], for which the efficacy with Phaedon cochleariae, with Tetranychus urticae, with Ctenocephalides felis [2], with Spodoptera frugiperda and with Rhipicephalus sanguineus (setting [3]) was 100% throughout. In addition, the “efficacy (rate of extermination)” value with Ctenocephalides felis [1] and with Musca domestica was 100% each time. In addition, the “efficacy (laying of fertile eggs)” value in the experiment on Boophilus microplus is on record as 100%.
Take `O=C(NCc1cc(-c2cnn(-c3c(Cl)cc(C(F)(C(F)(F)F)C(F)(F)F)cc3OC(F)F)c2)ccc1Cl)C1CC1` [Ia-52]: the efficacy with Phaedon cochleariae, with Ctenocephalides felis [2], in the experiment on Spodoptera frugiperda and in the experiment with Rhipicephalus sanguineus (setting [3]) was 100% throughout. Besides, the “efficacy (rate of extermination)” value with Ctenocephalides felis [1] and in the experiment on Musca domestica was 100% each time. In addition, in the experiment with Boophilus microplus, the “efficacy (laying of fertile eggs)” value is 100%.
For `CCC(=O)NCc1cc(-c2cnn(-c3c(Cl)cc(C(F)(C(F)(F)F)C(F)(F)F)cc3Cl)c2)ccc1F` [Ia-30], the “efficacy (rate of extermination)” value in the experiment with Ctenocephalides felis [1] and with Musca domestica was 100% throughout. The efficacy in the experiment on Ctenocephalides felis [2], in the experiment with Spodoptera frugiperda and in the experiment with Rhipicephalus sanguineus (setting [3]) was 100% in each case. The “efficacy (laying of fertile eggs)” value with Boophilus microplus is recorded as 100%.
As to `CCC(=O)NCc1cccc(-c2cnn(-c3c(C)cc(C(F)(C(F)(F)F)C(F)(F)F)cc3Cl)c2)c1` [Ia-69], the efficacy with Phaedon cochleariae amounted to 100%; in the experiment on Ctenocephalides felis [2], 100%; with Spodoptera frugiperda, 100%; in the experiment with Rhipicephalus sanguineus (application rate 1 μg/cm^2 (=100 g/ha)) it was 80%. Further, the “efficacy (rate of extermination)” value with Ctenocephalides felis [1] and in the experiment with Musca domestica was 100% throughout. Also, the “efficacy (laying of fertile eggs)” value in the experiment with Boophilus microplus is 100%.
Consider `CCC(=O)N(C)Cc1cc(-c2cnn(-c3c(Cl)cc(C(F)(C(F)(F)F)C(F)(F)F)cc3Cl)c2)ccc1Cl` [Ia-32], for which the efficacy was 100% in the experiment on Phaedon cochleariae; 100% in the experiment on Tetranychus urticae; 100% in the experiment with Ctenocephalides felis [2]; 100% with Spodoptera frugiperda; 80% in the experiment on Rhipicephalus sanguineus (setting [3]). In addition, in the experiment with Ctenocephalides felis [1], the “efficacy (rate of extermination)” value is 100%. The “efficacy (laying of fertile eggs)” value with Boophilus microplus is listed as 100%.
As for `CC(=O)N(C)Cc1cc(-c2cnn(-c3c(Cl)cc(C(F)(C(F)(F)F)C(F)(F)F)cc3OC(F)(F)F)c2)ccc1F` [Ia-63], the efficacy in the experiment with Phaedon cochleariae is 100%; in the experiment on Tetranychus urticae it was 100%; with Ctenocephalides felis [2] it was 100%; in the experiment with Spodoptera frugiperda it was 100%; in the experiment with Rhipicephalus sanguineus (setting [3]), 80%. In addition, the “efficacy (rate of extermination)” value in the experiment with Ctenocephalides felis [1] and in the experiment with Musca domestica was 100% throughout. Moreover, in the experiment with Boophilus microplus, the “efficacy (laying of fertile eggs)” value is on record as 100%.
As to `Cc1cc(C(F)(C(F)(F)F)C(F)(F)F)cc(Cl)c1-n1cc(-c2ccc(F)c(CNC(=O)C3CC3)c2)cn1` [Ia-67], the efficacy in the experiment with Phaedon cochleariae is listed as 100%; in the experiment on Tetranychus urticae it was 100%; with Ctenocephalides felis [2], 80%; in the experiment with Spodoptera frugiperda it was 100%; in the experiment with Rhipicephalus sanguineus (setting [3]) it was 80%. The “efficacy (rate of extermination)” value with Ctenocephalides felis [1] and in the experiment with Musca domestica was 100% throughout. In addition, the “efficacy (laying of fertile eggs)” value in the experiment with Boophilus microplus came out at 100%.
Take `CCC(=O)NC1CCc2ccc(-c3cnn(-c4c(Cl)cc(C(F)(C(F)(F)F)C(F)(F)F)cc4OC(F)F)c3)cc21` (stereo not shown) [I-Tc-03]: the efficacy in the experiment with Tetranychus urticae, in the experiment on Ctenocephalides felis [2], with Spodoptera frugiperda and with Rhipicephalus sanguineus (setting [3]) was 100% throughout. In addition, the “efficacy (rate of extermination)” value with Ctenocephalides felis [1] stood at 100%. In addition, the “efficacy (laying of fertile eggs)” value with Boophilus microplus was 100%.
On to `CC(=O)N(C)Cc1cc(-c2cnn(-c3c(Cl)cc(C(F)(C(F)(F)F)C(F)(F)F)cc3Cl)c2)ccc1F` [Ia-64], for which the efficacy in the experiment on Phaedon cochleariae, with Tetranychus urticae, in the experiment with Ctenocephalides felis [2] and with Spodoptera frugiperda was 100% in each case. The “efficacy (rate of extermination)” value with Ctenocephalides felis [1] and with Musca domestica was 100% throughout. The “efficacy (laying of fertile eggs)” value with Boophilus microplus is 100%.
Regarding `O=C(NCc1cc(-c2cnn(-c3c(Cl)cc(C(F)(C(F)(F)F)C(F)(F)F)cc3C(F)(F)F)c2)ccc1Cl)C1CC1` [Ia-54], the efficacy turned out to be 100% with Phaedon cochleariae, 80% in the experiment with Ctenocephalides felis [2], 100% in the experiment with Spodoptera frugiperda and 100% in the experiment on Rhipicephalus sanguineus (setting [3]). Also, the “efficacy (rate of extermination)” value with Ctenocephalides felis [1] and in the experiment with Musca domestica was 100% throughout. Moreover, the “efficacy (laying of fertile eggs)” value in the experiment with Boophilus microplus was found to be 100%.
For the compound `CC(=O)NCc1cc(-c2cnn(-c3c(Cl)cc(C(F)(C(F)(F)F)C(F)(F)F)cc3Cl)c2)cnc1Cl` [Ia-130], the efficacy amounted to 100% in the experiment with Phaedon cochleariae, 90% in the experiment with Tetranychus urticae, 100% in the experiment with Ctenocephalides felis [2] and 100% in the experiment with Spodoptera frugiperda. Also, the “efficacy (rate of extermination)” value with Ctenocephalides felis [1] and in the experiment with Musca domestica was 100% in each case. The “efficacy (laying of fertile eggs)” value in the experiment with Boophilus microplus is 100%.
Regarding `N#Cc1cc(C(F)(C(F)(F)F)C(F)(F)F)cc(Cl)c1-n1cc(-c2ccc(F)c(CNC(=O)C3CC3)c2)cn1` [Ia-107], the efficacy with Phaedon cochleariae, with Tetranychus urticae, in the experiment with Ctenocephalides felis [2] and with Spodoptera frugiperda was 100% in each case. Besides, the “efficacy (rate of extermination)” value with Ctenocephalides felis [1] and in the experiment on Musca domestica was 100% each time. Further, the “efficacy (laying of fertile eggs)” value with Boophilus microplus is recorded as 100%.
On to `CC(=O)NCc1c(F)ccc(-c2cnn(-c3c(Cl)cc(C(F)(C(F)(F)F)C(F)(F)F)cc3OC(F)F)c2)c1F` [Ia-158], for which the efficacy with Phaedon cochleariae, in the experiment on Tetranychus urticae, with Ctenocephalides felis [2] and in the experiment on Spodoptera frugiperda was 100% in each case. In addition, the “efficacy (rate of extermination)” value with Ctenocephalides felis [1] and in the experiment on Musca domestica was 100% each time. For the same compound, the “efficacy (laying of fertile eggs)” value with Boophilus microplus came out at 100%.
